Assay [1] concerns lipopolysaccharide (LPS)-initiated secretion of the cytokine IL-8 in the human THP-1 monocyte cell line. Put plainly: Inhibition of LPS-initiated IL-8 secretion in THP-1 cells. As to conditions: for Emax / IC50: Homo sapiens; for Emax: read-out: IL8 eff; for IC50: read-out: IL8 IC50; for Diss. (TATEC50/IL8IC50): ratio TAT EC50 / IL8 IC50. It is filed as cell-based.
For assay [2], the system named is tyrosine aminotransferase (TAT). Kind of assay: TAT induction in vitro. It counts as cell-based. The note with it: for Emax: read-out: TAT eff.
Where [3] appears, read: THP-1, inventive stereoisomers, efficacy of IL-8 inhibition.
Where [4] appears, read: inventive stereoisomers, LPS-initiated IL-8 secretion, THP-1 cells.
[5] abbreviates: inventive stereoisomers, efficacy of TAT induction.
The mark [6] stands for this setting: inventive stereoisomers, in vitro TAT induction.
[7] abbreviates: inventive stereoisomers, in vitro TAT induction, cells printed in μM.
[8] abbreviates: THP-1, prior-art compounds (WO2005/034939).
The mark [9] stands for this setting: prior-art compounds (WO2005/034939).

Where two headings read alike, the source gives them in different places.

For the molecule `CC[C@H]1C[C@](O)(C(F)(F)F)[C@@H](Nc2cccc3[nH]c(=O)ccc23)c2ccc(F)c(O)c21` (stereo in doubt) [Example 43, 5-{[(1α,2α,4α)-4-Ethyl-6-fluoro-2,5-dihydroxy-2-(trifluoromethyl)-1,2,3,4-tetrahydronaphthalen-1-yl]amino}quinolin-2(1H)-one], the Emax in assay [1] (setting [3]) worked out at 88%; in assay [2] (setting [5]), 100%. For the same molecule, the 50% inhibitory concentration (IC50) in assay [1] (setting [4]) was 12 nM. Besides, the “Diss. (TATEC50/IL8IC50)” value in assay [1] (inventive stereoisomers) was found to be 3.6. Besides, the EC50 in assay [2] (setting [6]) is 0.043 µM.
With `CC[C@H]1C[C@](O)(C(F)(F)F)[C@@H](Nc2cc(F)cc3[nH]c(=O)ccc23)c2ccc(Cl)c(O)c21` (stereo in doubt) [Example 101, 5-{[(1α,2α,4α)-6-Chloro-2,5-Dihydroxy-4-ethyl-2-(trifluoromethyl)-1,2,3,4-tetrahydronaphthalen-1-yl]amino}-7-fluoro-1H-quinolin-2-one], the Emax was 92% in assay [1] (setting [3]) and 97% in assay [2] (setting [5]). Also, the IC50 in assay [1] (setting [4]) is 1.8 nM. The “Diss. (TATEC50/IL8IC50)” value in assay [1] (inventive stereoisomers) is given as 41. Moreover, in assay [2] (setting [6]), the EC50 came out at 0.074 µM.
Take `Cc1ccc2c(N[C@H]3c4ccc(F)c(O)c4[C@H](C)C[C@]3(O)C(F)(F)F)cccc2n1` [Example 1]: the Emax was 79% in assay [1] (setting [3]) and 62% in assay [2] (setting [5]). In assay [1] (setting [4]), the IC50 was determined as 22 nM. The “Diss. (TATEC50/IL8IC50)” value in assay [1] (inventive stereoisomers) turned out to be 45.5. Moreover, in assay [2] (setting [7]), the EC50 came to 1 µM.
In the case of `CC[C@@H]1C[C@](O)(C(F)(F)F)[C@@H](Nc2cccc3nc(C)ncc23)c2ccc(F)c(O)c21` [Example 29A, (5α,6α,8β)-8-Ethyl-2-fluoro-5-[(2-methylquinazolin-5-yl)amino]-6-(trifluoromethyl)-5,6,7,8-tetrahydronaphthalene-1,6-diol], the Emax worked out at 77% in assay [1] (setting [3]) and 95% in assay [2] (setting [5]). In assay [1] (setting [4]), the IC50 came out at 16 nM. The “Diss. (TATEC50/IL8IC50)” value in assay [1] (inventive stereoisomers) stood at 7.5. The molecule further returned an EC50 in assay [2] (setting [6]) of 0.12 µM.
For `CC[C@@H]1C[C@](O)(C(F)(F)F)[C@@H](Nc2cc(F)cc3nc(C)ncc23)c2ccc(F)c(O)c21` [Example 30A, (5S,6R,8R)-8-Ethyl-2-fluoro-5-[(7-fluoro-2-methylquinazolin-5-yl)amino]-6-(trifluoromethyl)-5,6,7,8-tetrahydronaphthalene-1,6-diol] the same measures were 89%, 95%, 6.6 nM, 2.8 and 0.017 µM.
Consider `CC[C@@H]1C[C@](O)(C(F)(F)F)[C@@H](Nc2cc(F)cc3nc(C)ncc23)c2cc(F)c(F)c(O)c21` [Example 51A, (5α,6α,8β)-8-Ethyl-2,3-difluoro-5-[(7-fluoro-2-methylquinazolin-5-yl)amino]-6-(trifluoromethyl)-5,6,7,8-tetrahydronaphthalene-1,6-diol], for which the figures for the Emax in assay [1] (setting [3]) and in assay [2] (setting [5]) were 72% and 81%, respectively. In addition, the IC50 in assay [1] (setting [4]) was determined as 13 nM. Further, the “Diss. (TATEC50/IL8IC50)” value in assay [1] (inventive stereoisomers) amounted to 11.5. Besides, the EC50 in assay [2] (setting [6]) stood at 0.15 µM.
For `CC[C@@H]1C[C@](O)(C(F)(F)F)[C@@H](Nc2cccc3[nH]c(=O)ccc23)c2cc(F)c(F)c(O)c21` [Example 54, 5-{[(1α,2α,4β)-4-ethyl-6,7-difluoro-2,5-dihydroxy-2-(trifluoromethyl)-1,2,3,4-tetrahydronaphthalen-1-yl]amino}quinolin-2(1H)-one] the same measures were 78%, 76%, 5.7 nM, 86 and 0.49 µM.
On to `Cc1ccc2c(NC3c4ccc(F)c(O)c4C(C(C)C)CC3(O)C(F)(F)F)cccc2n1` (centres unmarked) [Example 65, 2-Fluoro-5-[(2-methylquinolin-5-yl)amino]-8-(Prop-2-yl)-6-(trifluoromethyl)-5,6,7,8-tetrahydronaphthalene-1,6-diol], for which the Emax was 58% in assay [1] (setting [3]) and 73% in assay [2] (setting [5]). Moreover, the concentration for half-maximal inhibition (IC50) in assay [1] (setting [4]) was 38 nM. In addition, the “Diss. (TATEC50/IL8IC50)” value in assay [1] (inventive stereoisomers) worked out at 26.3. In assay [2] (setting [7]), this molecule showed an EC50 of 1 µM.
For the molecule `CCC1CC(O)(C(F)(F)F)C(Nc2cccc3[nH]c(=O)ccc23)c2cc(F)cc(O)c21` (centres unmarked) [Example 75, 5-{[4-Ethyl-7-fluoro-2,5-dihydroxy-2-(trifluoromethyl)-1,2,3,4-tetrahydronaphthalen-1-yl]amino}quinolin-2(1H)-one], the Emax in assay [1] (setting [3]) was 68%; in assay [2] (setting [5]) it was 89%. Besides, the IC50 in assay [1] (setting [4]) came to 7.1 nM. Moreover, the “Diss. (TATEC50/IL8IC50)” value in assay [1] (inventive stereoisomers) stood at 16.9. This molecule also registered an EC50 in assay [2] (setting [6]) of 0.12 µM.
For `CC[C@@H]1C[C@](O)(C(F)(F)F)[C@@H](Nc2cccc3c(=O)[nH]ccc23)c2cc(Cl)c(C)c(O)c21` [Example 121B, 5-{[(1S,2R,4R)-7-chloro-2,5-Dihydroxy-6-methyl-4-ethyl-2-(trifluoromethyl)-1,2,3,4-tetrahydronaphthalen-1-yl]amino}-2H-quinolin-1-one], the Emax stood at 88% in assay [1] (setting [3]) and 99% in assay [2] (setting [5]). In addition, in assay [1] (setting [4]), the IC50 stood at 3.7 nM. Further, the “Diss. (TATEC50/IL8IC50)” value in assay [1] (inventive stereoisomers) is given as 81. In assay [2] (setting [6]), this molecule yielded an EC50 of 0.3 µM.
As to `CC1(C)CC(O)(C(F)(F)F)C(Nc2cc(F)cc3[nH]ncc23)c2ccc(F)c(O)c21` (centres unmarked) [reference compound], in assay [1] (setting [8]), the IC50 is 20 nM and the Emax was found to be 88%. Besides, in assay [1] (setting [9]), the “Diss. (TATEC50/IL8IC50)” value is given as 0.22. Further, in assay [2] (setting [9]), a half-maximal response (EC50) required 0.0043 µM and the Emax is 100%.
For the molecule `Cc1ncc2c(NC3c4cc(C)c(F)c(O)c4C(C)(C)CC3(O)C(F)(F)F)ccc(F)c2n1` (centres unmarked) [reference compound], in assay [1] (setting [8]), the IC50 was 40 nM and the Emax worked out at 79%. In assay [1] (setting [9]), the “Diss. (TATEC50/IL8IC50)” value came out at 0.16. For the same molecule, in assay [2] (setting [9]), the response was half-maximal at 0.0065 µM (EC50) and the Emax was determined as 100%.
For `Cc1ncc2c(NC3c4ccc(Cl)c(O)c4C(C)(C)CC3(O)C(F)(F)F)ccc(F)c2n1` (centres unmarked) [reference compound], in assay [1] (setting [8]), the IC50 is 22 nM and the Emax turned out to be 73%. Also, the “Diss. (TATEC50/IL8IC50)” value in assay [1] (setting [9]) is 0.14. For the same molecule, in assay [2] (setting [9]), it took 0.003 µM to reach a half-maximal effect (EC50) and the Emax stood at 98%.
For `CCC1CC(O)(C(F)(F)F)C(Nc2cccc3nc(C)ccc23)c2ccc(F)c(O)c21` (centres unmarked) [reference compound] the same measures were 220 nM, 69%, 0.64, 0.14 µM and 88%.
As for `CC1(C)CC(O)(C(F)(F)F)C(Nc2cccc3[nH]c(=O)ccc23)c2ccc(F)c(O)c21` (centres unmarked) [reference compound], in assay [1] (setting [8]), the IC50 was 14 nM and the Emax came out at 68%. Moreover, the “Diss. (TATEC50/IL8IC50)” value in assay [1] (setting [9]) worked out at 0.27. For the same molecule, in assay [2] (setting [9]), the EC50 was 0.0038 µM and the Emax worked out at 92%.
Regarding `Cc1ncc2c(NC3c4cc(Cl)c(F)c(O)c4C(C)(C)CC3(O)C(F)(F)F)cc(F)c(F)c2n1` (centres unmarked) [reference compound], in assay [1] (setting [8]), the IC50 was determined as 31 nM and the Emax turned out to be 96%. In assay [1] (setting [9]), the “Diss. (TATEC50/IL8IC50)” value is reported as 0.14. Further, in assay [2] (setting [9]), the concentration giving a half-maximal response (EC50) was found to be 0.0042 µM and the Emax was determined as 100%.

Usually IC50 stands for the concentration at which inhibition is half-maximal. As a reminder, the EC50 is the concentration at which the effect is half-maximal. Read a low EC50 as greater potency.

For the origin of these results see patent publication US7880042B2, “Tetrahydronaphthalene derivatives, methods for the production thereof, and the use thereof as antiphlogistics” (Bayer Schering Pharma AG, priority 2006, dated 2011).
